Earlier results in patent publication US20110237925A1, “MICRONEEDLE ARRAY CHIP, DEVICE AND PATCH FOR TRANSDERMAL DRUG DELIVERY UTILIZING THE SAME, AND PREPARATION METHOD THEROF” (priority 2010, published 2011).

Conditions: solid silicon microneedle array prepared through MEMS technology

O=C(O)CN(CC(=O)O)Cc1cc2c(cc1O)Oc1cc(O)c(CN(CC(=O)O)CC(=O)O)cc1C21OC(=O)c2ccccc21 [calcein]
increase of the transdermal permeability: four orders of magnitude
